Laboratory results taken from patent publication US9326506B2, “Preparation method, agricultural composition and applications of natural brassinolide analogs” (CHENGDU NEWSUN CROPSCIENCE CO., LTD, priority 2012, dated 2016).

System: rice
Experiment: Low temperature assay on rice seedlings
Format: in vivo
Procedure: According to a low temperature assay, we measured parameters including plant height, number of leaf, area of leaf, number of tiller, weight of root at low temperature to completely determine effects of the natural brassinolide analogues on the resistance to low temperature of a plant.
The natural brassinolide analogues, BR1, BR2, BR3, BR4, BR5 and BR6, used herein, were those prepared by the method of Example 1. Respectively the analogues were dissolved into 95% (V/V) ethanol solution, and then diluted with pure water to 1 mg/L, 0.1 mg/L, 0.01 mg/L, 0.001 mg/L and 0.0001 mg/L. In addition, pure water was used as a control.
After rice seeds were disinfected by using 5% sodium hypochlorite solution treatment, they were rinsed with distilled water until their pH>7, placed into a petri dish in a dark incubator, and cultured by using water at 30° C.±2° C. for 9 days. Then respectively the nine-day-old etiolated seedlings of rice were immersed in the above solutions containing different concentrations of the natural brassinolide analogues or pure water, and cultured at the temperature of 1° C., 2° C., 3° C., 4° C. and 5° C. for 24 hr. The parameters including plant height, area of leaf and weight of root after 3, 6, 9 and 12 days and number of leaf and number of tiller after 12 days were measured.

Work on `CC(C)[C@H](C)[C@@H](O)[C@H](O)[C@@H](C)[C@H]1CCC2C3COC(=O)C4C[C@H](O)[C@H](O)C[C@]4(C)C3CC[C@@]21C` (stereo partly shown) [BR1] yielded an Area of leaf (0.001 mg/l, 2 °C, 6 days) of 11.8 cm^2, a Height (0.001 mg/l, 2 °C, 6 days) of 7.1 cm and a Weight of root (0.001 mg/l, 2 °C, 6 days) of 3.0 g. It also gave an Area of leaf (0.001 mg/l, 2 °C, 9 days) of 12.6 cm^2, a Height (0.001 mg/l, 2 °C, 9 days) of 7.2 cm and a Weight of root (0.001 mg/l, 2 °C, 9 days) of 3.2 g. The Area of leaf (0.001 mg/l, 2 °C, 12 days) was 13.1 cm^2, the Height (0.001 mg/l, 2 °C, 12 days) was 7.3 cm and the Number of leaf (0.001 mg/l, 2 °C, 12 days) was 3. For the same molecule, the Number of tiller (0.001 mg/l, 2 °C, 12 days) was 3, the Weight of root (0.001 mg/l, 2 °C, 12 days) was 3.9 g and the Area of leaf (0.001 mg/l, 3 °C, 3 days) was 10.4 cm^2. The Height (0.001 mg/l, 3 °C, 3 days) was 7 cm, the Weight of root (0.001 mg/l, 3 °C, 3 days) was 2.5 g and the Area of leaf (0.001 mg/l, 3 °C, 6 days) was 12 cm^2. It also gave a Height (0.001 mg/l, 3 °C, 6 days) of 7.1 cm, a Weight of root (0.001 mg/l, 3 °C, 6 days) of 2.6 g and an Area of leaf (0.001 mg/l, 3 °C, 9 days) of 12.6 cm^2. It also gave a Height (0.001 mg/l, 3 °C, 9 days) of 7.4 cm, a Weight of root (0.001 mg/l, 3 °C, 9 days) of 2.9 g and an Area of leaf (0.001 mg/l, 3 °C, 12 days) of 13.2 cm^2. It also gave a Height (0.001 mg/l, 3 °C, 12 days) of 7.3 cm, a Number of leaf (0.001 mg/l, 3 °C, 12 days) of 3 and a Number of tiller (0.001 mg/l, 3 °C, 12 days) of 2. It also gave a Weight of root (0.001 mg/l, 3 °C, 12 days) of 2.9 g, an Area of leaf (0.001 mg/l, 4 °C, 3 days) of 10.6 cm^2 and a Height (0.001 mg/l, 4 °C, 3 days) of 7.1 cm. The Weight of root (0.001 mg/l, 4 °C, 3 days) was 2.5 g, the Area of leaf (0.001 mg/l, 4 °C, 6 days) was 12.4 cm^2 and the Height (0.001 mg/l, 4 °C, 6 days) was 7.3 cm. It also gave a Weight of root (0.001 mg/l, 4 °C, 6 days) of 2.6 g, an Area of leaf (0.001 mg/l, 4 °C, 9 days) of 13.1 cm^2 and a Height (0.001 mg/l, 4 °C, 9 days) of 7.5 cm. The Weight of root (0.001 mg/l, 4 °C, 9 days) was 2.9 g, the Area of leaf (0.001 mg/l, 4 °C, 12 days) was 13.5 cm^2 and the Height (0.001 mg/l, 4 °C, 12 days) was 7.7 cm. The Number of leaf (0.001 mg/l, 4 °C, 12 days) was 3, the Number of tiller (0.001 mg/l, 4 °C, 12 days) was 2 and the Weight of root (0.001 mg/l, 4 °C, 12 days) was 2.9 g. For the same molecule, the Area of leaf (0.001 mg/l, 5 °C, 3 days) was 10.7 cm^2, the Height (0.001 mg/l, 5 °C, 3 days) was 7.5 cm and the Weight of root (0.001 mg/l, 5 °C, 3 days) was 2.8 g. For the same molecule, the Area of leaf (0.001 mg/l, 5 °C, 6 days) was 14.6 cm^2, the Height (0.001 mg/l, 5 °C, 6 days) was 7.7 cm and the Weight of root (0.001 mg/l, 5 °C, 6 days) was 2.9 g. For the same molecule, the Area of leaf (0.001 mg/l, 5 °C, 9 days) was 16.4 cm^2, the Height (0.001 mg/l, 5 °C, 9 days) was 7.9 cm and the Weight of root (0.001 mg/l, 5 °C, 9 days) was 3.0 g. The Area of leaf (0.001 mg/l, 5 °C, 12 days) was 17 cm^2, the Height (0.001 mg/l, 5 °C, 12 days) was 8.2 cm and the Number of leaf (0.001 mg/l, 5 °C, 12 days) was 3. The Number of tiller (0.001 mg/l, 5 °C, 12 days) was 3, the Weight of root (0.001 mg/l, 5 °C, 12 days) was 3.7 g and the Area of leaf (0.01 mg/l, 1 °C, 3 days) was 10.1 cm^2. The Height (0.01 mg/l, 1 °C, 3 days) was 6.9 cm, the Weight of root (0.01 mg/l, 1 °C, 3 days) was 2.8 g and the Area of leaf (0.01 mg/l, 1 °C, 6 days) was 11.9 cm^2. The Height (0.01 mg/l, 1 °C, 6 days) was 7.2 cm, the Weight of root (0.01 mg/l, 1 °C, 6 days) was 3.0 g and the Area of leaf (0.01 mg/l, 1 °C, 9 days) was 12.9 cm^2. For the same molecule, the Height (0.01 mg/l, 1 °C, 9 days) was 7.3 cm, the Weight of root (0.01 mg/l, 1 °C, 9 days) was 3.4 g and the Area of leaf (0.01 mg/l, 1 °C, 12 days) was 13.6 cm^2. For the same molecule, the Height (0.01 mg/l, 1 °C, 12 days) was 7.4 cm, the Number of leaf (0.01 mg/l, 1 °C, 12 days) was 3 and the Number of tiller (0.01 mg/l, 1 °C, 12 days) was 3. The Weight of root (0.01 mg/l, 1 °C, 12 days) was 3.9 g, the Area of leaf (0.01 mg/l, 2 °C, 3 days) was 10.3 cm^2 and the Height (0.01 mg/l, 2 °C, 3 days) was 6.9 cm. For the same molecule, the Weight of root (0.01 mg/l, 2 °C, 3 days) was 2.8 g, the Area of leaf (0.01 mg/l, 2 °C, 6 days) was 11.8 cm^2 and the Height (0.01 mg/l, 2 °C, 6 days) was 7.2 cm. For the same molecule, the Weight of root (0.01 mg/l, 2 °C, 6 days) was 3.0 g, the Area of leaf (0.01 mg/l, 2 °C, 9 days) was 12.8 cm^2 and the Height (0.01 mg/l, 2 °C, 9 days) was 7.3 cm. For the same molecule, the Weight of root (0.01 mg/l, 2 °C, 9 days) was 3.1 g, the Area of leaf (0.01 mg/l, 2 °C, 12 days) was 13.4 cm^2 and the Height (0.01 mg/l, 2 °C, 12 days) was 7.5 cm. It also gave a Number of leaf (0.01 mg/l, 2 °C, 12 days) of 3, a Number of tiller (0.01 mg/l, 2 °C, 12 days) of 3 and a Weight of root (0.01 mg/l, 2 °C, 12 days) of 3.2 g. For the same molecule, the Area of leaf (0.01 mg/l, 3 °C, 3 days) was 10.4 cm^2, the Height (0.01 mg/l, 3 °C, 3 days) was 7 cm and the Weight of root (0.01 mg/l, 3 °C, 3 days) was 2.5 g. For the same molecule, the Area of leaf (0.01 mg/l, 3 °C, 6 days) was 12 cm^2, the Height (0.01 mg/l, 3 °C, 6 days) was 7.2 cm and the Weight of root (0.01 mg/l, 3 °C, 6 days) was 2.6 g. The Area of leaf (0.01 mg/l, 3 °C, 9 days) was 12.6 cm^2.
